The record followed here is article PMC5944846 (ACS chemical biology, 2018).

This assay relates to E. coli ATCC 25922. In words: MIC against E. coli ATCC 25922. Format: cell-based. To be noted: Escherichia coli.

≈ marks a conversion by molar mass, not a printed value. Read-outs that look alike come from different tables or passages of the source.

With `CN(C)[C@@H]1C(O)=C(C(N)=O)C(=O)[C@@]2(O)C(O)=C3C(=O)c4c(O)cccc4[C@@](C)(O)[C@H]3[C@H](O)[C@@H]12` [oxytetracycline], the MIC (ATCC25922, read-out: oxytetracycline + 32 μg/mL tyrobetaine MIC) was found to be 8 µg/mL and the MIC (ATCC25922, read-out: oxytetracycline MIC) was determined as 4 µg/mL (≈ 8.69 µM).
